This note sets out measurements from patent publication US9889152B2, “Multiple PPI dosage form” (TAKEDA PHARMACEUTICALS U.S.A., INC., priority 2004, dated 2018).

One series concerns gastric pH. In words: Threshold level modeling: effect compartment / sigmoid Emax PK-PD model of intragastric pH versus lansoprazole concentration after single intravenous doses. Particulars: effect compartment concentration (assumed same as plasma concentration at steady-state), fasting, FIG. 1. In kind it is in vivo, humans. The source says: Plasma concentration data obtained following administration of single intravenous doses of lansoprazole in humans was modeled to establish threshold concentrations above which a PPI is effective. Initially, gastric pH measured over the five hours post dosing (under fasting conditions) was plotted as a function of plasma concentration. However, no direct relationship between the gastric pH and the drug's plasma concentration could be established. […] An effect compartment model was then used in an attempt to delineate a useful relationship between drug concentration and effect. Accordingly, a model was proposed where a PK compartment was linked to a separate effect compartment. […] Using the same intravenous data, the pharmacological effect was modeled using sigmoid Emax model and PK was modeled using the two compartment model. The modeling first established the pharmacokinetic characteristics of lansoprazole, then the relationship between drug plasma concentration and intragastric pH was established, and pharacodynamic parameter estimates were obtained. The modeling provided the graph shown in FIG. 1 where the effect compartment concentration (assumed to be the same as the plasma concentration at steady-state) is on the x-axis and gastric pH on the y-axis. […]

A short description of series [1]: Site of absorption study (Phase 1, remote control capsule, segmental absorption and pharmacokinetics). It counts as in vivo, human. Particulars: 30 mg powder with sodium bicarbonate released via remote control capsule; healthy adult males.
Excerpt: This was a Phase 1, open-label, non-randomized, four-period, single-dose, crossover study in 8 healthy adult males. […] Upon receiving a remote signal during Periods 1, 2, and 3, the capsule released it's contents in the pre-designated site within the GI tract (see table 1 below).
Indium-111 chloride (^111 In-chloride) was used as the radioactive marker in the test formulation that was filled into remote control capsule. Each subject also received a second radioisotope, technetium-99m DTPA (^99mTc-DTPA), in the water used to swallow the InteliSite Companion capsule. Since the radioisotopes are not absorbed, progress of the formulation through the GI tract was monitored using a gamma camera that captures images at frequent intervals after ingestion of the dose. The radioisotope in the water outlined or “mapped” the GI tract to delineate the targeted site of drug release. […]
The relative bioavailability of lansoprazole delivered to the proximal small intestine, distal small intestine, or colon compared to the delayed release lansoprazole capsule was calculated as the ratios of AUC∞ for different GI regions to that of the delayed release capsule. In addition, the relative bioavailability of lansoprazole delivered to the distal small intestine and colon compared to the proximal small intestine was calculated.

SMILES strings stand for the structures.

`Cc1c(OCC(F)(F)F)ccnc1C[S+]([O-])c1nc2ccccc2[nH]1` (stereo not shown) [lansoprazole]: in the series with gastric pH, the “concentration above which the effect on gastric pH levels off” value is on record as around 450 ng/ml and the “threshold concentration above which the effect of the drug (rise of gastric pH above baseline) begins” value is “approximately 100 ng/ml”. Also, in series [1], the “extent of absorption when directly delivered to the colon” value was “reduced”; the “rate and extent of absorption from the distal small intestine versus proximal intestine” value is reported as “less than those obtained for the proximal intestine, although the absorptions were comparable”.
